One series relates to Influenza (INFL) B. Briefly: microbe, parasite or virus in culture. Type of series: cell-based. Particulars: read-out: Dir.Antiviral activity (EC50) INFL.B.
In series [1] the test system is cells infected with Parainfluenza 3.
In series [2] the test system is cells infected with Influenza A. Briefly: Cytotoxicity assay, influenza A test. Format: cell-based. Particulars: cells of the Influenza A test; read-out: Cytotoxicity (CC50) INFL.A. On the procedure:
(§1) In vitro testing for direct antiviral activity of Levovirin™ and Ribavirin against influenza A and B, parainfluenza 1 and 2, and respiratory syncytial virus were performed as described in Huffinan, J. H. et al. Antiviral Chem. and Chemother. 1997, 8: 75-83 and Barnard, D. L. et al. Antiviral Chem. and Chemother 1997, 8: 223-233. Anti-human immunodeficiency virus activity was assessed by the National Cancer Institute using a procedure designed to detect agents acting at any stage of the virus reproductive cycle [Weislow, O. W. et al., J. Natl. Cancer Inst. 1989, 81: 577-586]. Anti-hepatitis B (HBV) activity was monitored by using an assay as described by Marion et al., Hepatology 1987, 7: 724-731. Anti-HIV activity and cytotoxicity for Ribavirin was determined from previous data [McCormick, J. B., Lancet, 1998, II: 1367-1369.

Series [3] concerns SEB stimulated T cell expression of the TH1 cytokines IL-2, IFN-γ, and TNF-α. Type of series: cell-based, human.
A further series relates to Influenza (INFL) A. Format: cell-based. Particulars: read-out: Dir.Antiviral activity (EC50) INFL.A.
For another series, the system named is cells infected with HIV. The settings on record: cells of the HIV test; Ribavirin value from previous data (McCormick, Lancet); read-out: Cytotoxicity (CC50) HIV; cited from earlier work.
In a further series the test system is Parainfluenza (PARA) 3. Type of series: cell-based, Parainfluenza 3. Particulars: read-out: Dir.Antiviral activity (EC50) PARA 3.
The next series relates to Parainfluenza (PARA) 1. Type of series: cell-based, Parainfluenza 1. Particulars: read-out: Dir.Antiviral activity (EC50) PARA 1.
In series [4] the test system is cells infected with Influenza B. Briefly: Cytotoxicity assay, influenza B test. Type of series: cell-based. The settings on record: cells of the Influenza B test; read-out: Cytotoxicity (CC50) INFL.B. Here is the method:
as §1

Series [5] concerns respiratory syncytial virus (RSV). Type of series: cell-based. Particulars: read-out: Dir.Antiviral activity (EC50) RSV.
The test system of series [6] is Concanavalin A Induced Hepatitis. The series is described as follows: Concanavalin A induced hepatitis, serum ALT. The settings on record: BALB/c mice, single i.p. dose 20 μg (1 mg/kg) 1 hr prior to i.v. 0.3 mg Con A; serum after 24 hr; PBS control about 1900 U/ml.
Series [7] can be described thus: Four-week oral toxicity in rats. The settings on record: oral administration, 180 mg/kg over four weeks.
The next series concerns Hepatitis B (HBV). Type of series: cell-based. The settings on record: read-out: Dir.Antiviral activity (EC50) HBV.
For series [8], the system named is cells infected with Parainfluenza 1.
Series [9] is described as follows: Cytotoxicity assay, influenza A test. Type of series: cell-based. Particulars: cells infected with Influenza A (cell line not given); cells of the Influenza A test; read-out: Cytotoxicity (CC50) INFL.A. Here is the method:
as §1

For series [10] the following is noted: rat, in vivo, po, 180 mg/kg.
A short description of series [11]: Cytotoxicity assay, influenza B test. Format: cell-based. The settings on record: cells infected with Influenza B (cell line not given); cells of the Influenza B test; read-out: Cytotoxicity (CC50) INFL.B. Here is the method: as §1

Consider 2 compounds from patent US6518253B1, “Treatment of viral infections using the L-isomer of ribavirin” (priority 1999, dated 2003).

Like-named read-outs stand apart in the source and are kept apart here.

As for “1-(5-Deoxy-β-D-ribo-furanosyl)-1,2,4-triazole-3-carboxamide [Ribavirin]”, the EC50 with Influenza (INFL) B (Influenza B) is 1.9 µM; in the series with Influenza (INFL) A it was 6.1 µM; with Parainfluenza (PARA) 3 it was 4 µM; with Parainfluenza (PARA) 1, 40 µM; in [5], 5 µM; in the series on Hepatitis B (HBV) it was above 100 µM. The CC50 in [1] was 480 µM; in [2], 56 µM; in the series on cells infected with HIV it was above 40 µM; in series [4] it was above 100 µM; in the series with cells infected with RSV, 100 µM; in [8] it was above 1000 µM. Also, half-maximal cytotoxicity with cells infected with HBV (CC50) was put at 53 µM. Besides, the “IFN-γ, mean percentage of activated control” value in series [3] is 131 ± 6 percentage of activated control. In addition, the “IL-2, mean percentage of activated control” value in series [3] is 143 ± 18 percentage of activated control. For the same compound, the “TNF-α, mean percentage of activated control” value in series [3] is given as 124 ± 4 percentage of activated control. For the same compound, the “Con A induced serum ALT level” value in [6] is 969 U/ml. In series [7], the “Clinical pathology (hemolytic anemia, leukopenia)” value was “produced significant hemolytic anemia and leukopenia”.
For `NC(=O)c1ncn([C@H]2O[C@@H](CO)[C@H](O)[C@@H]2O)n1` [Levovirin™, 1-(β-L-ribofuranosyl)-1,2,4-triazole-3-carboxamide], the EC50 with Influenza (INFL) B (Influenza B virus) is above 200 µM. The CC50 in series [9] is above 200 µM. Further, in series [3], the “IFN-γ, mean percentage of activated control” value is given as 122 ± 3 percentage of activated control; the “IL-2, mean percentage of activated control” value is listed as 131 ± 12 percentage of activated control; the “TNF-α, mean percentage of activated control” value is reported as 144 ± 7 percentage of activated control. Moreover, the “Clinical pathology (hemolytic anemia, leukopenia)” value in [10] is on record as “did not produce any observable clinical pathology”. In [11], the CC50 was above 200 µM. In addition, the “Con A induced serum ALT level” value in series [6] was 954 U/ml.
